Values of other authors in patent publication US11504411B1, “Herbal dietary supplement supporting healthy immune function” (Progressing Bodies, Inc., priority 2021, dated 2022).

Tests used:
norovirus = conditions: over the course of less than one hour
herpes simplex virus = conditions: within just one hour

SMILES | singlet oxygen quenching strength relative to CoQ10 (versus CoQ10) | singlet oxygen quenching strength relative to green tea catechins (versus green tea catechins) | singlet oxygen quenching strength relative to vitamin C (versus vitamin C) | inactivation of norovirus (norovirus) | herpes simplex virus inactivated (herpes simplex virus)
CC1=C(/C=C/C(C)=C/C=C/C(C)=C/C=C/C=C(C)/C=C/C=C(C)/C=C/C2=C(C)C(=O)[C@@H](O)CC2(C)C)C(C)(C)C[C@H](O)C1=O [astaxanthin] | 800 times | 550 times | 6,000 times |  | 
Cc1ccc(C(C)C)cc1O [carvacrol] |  |  |  | inactivated norovirus | 90%
Cc1ccc(C(C)C)c(O)c1 [thymol] |  |  |  |  | 90%
